How the values were obtained:
[1] = test system: Aggregatibacter actinomycetemcomitans; assay: Growth inhibition (OD610), single culture; assay type: cell-based; details: Aggregatibacter actinomycetemcomitans
Procedure: (§1) Single species of Streptococcus gordonii (S. gordonii, S.g) strain V288 (ATCC #35105), Streptococcus sobrinus (S. sobrinus, S.$) strain SL1[CCM 6070, CNCTC 9/89] (ATCC #33478), or Aggregatibacter actinomycetemcomitans were analyzed. Also, a mixed culture containing Actinomyces viscosus (A. viscosus, A.v) strain (ATCC, #43146), Lactobacillus casei (L. casei, L.c) strain (ATCC #334), Streptococcus oralis (S. oralis, S. o) strain (ATCC #35037), Fusobacterium nucleatum (F. nucleatum, F. n) strain (ATCC #10953), and Veilonella parvula (V. parvula, V. p) strain (ATCC #17745) was also analyzed for growth inhibition/toxicity activity. Bacteria were cultured overnight in approximately 20 ml of BHI broth (BD, cat #237500) or maintained in a specialized complex modified BHI II medium in a continuous culture chemostat at 37° C. respectively. The following day, the OD610 were determined and solutions diluted to an OD610 of 0.2 or 0.1 respectively for the assay.
(§2) Triclosan (positive control) was prepared as a 10% stock in 100% EtOH and 3 fold serial dilutions were performed in 100% EtOH. An appropriate amount of the diluted samples was then transferred into a 96 well clear plate such that the resulting final concentration of the test samples ranged from either a 2 mM or 4 mM (highest concentration) to 0.0078 mM or 0.0156 mM (lowest concentration respectively) in 2% DMSO in 100 μl media per well. Triclosan (TCN) ranged from 0.01% to 1.67e-6% in 1% EtOH. For Zinc acetate, in order to mimic the 2:1 molar ratio (ligand:Zinc) in the Naringin:Zinc complex, the final concentration ranged from 0.7 mM to 0.0027 mM for samples with 2 mM as the highest concentration and 1.33 mM to […] for samples with 4 mM as the highest concentration in 2% DMSO. Next, 100 μl of bacterial culture at OD610 0.2 were introduced to the wells with the test samples. The wells were thoroughly mixed and incubated at 37° C. overnight. The plates were read using an Envision plate reader (PerkinElmer, Waltham, Mass.) at 610 nm.
(§3) The IC50 for the complex, Product 5, was determined for Streptococcus gordonii (S. gordonii), Streptococcus sobrinus (S. sobrinus), Aggregatibacter actinomycetemcomitans (A. actinomycetemcomitans), and also for the mixed bacterial culture. […] Triclosan (TCN) was included as a positive control for bacterial inhibition.
(§4) Further characterization was performed on planktonic oral microbes; Streptococcus sobrinus (Cariongenic—strain-SL1[CCM 6070, CNCTC 9/89] (ATCC cat. #33478), Streptococcus gordonii (Arginolytic—strain V288 (ATCC cat. #35105), Actinomyces viscosus) as well late colonizer (Gram −), pathogenic Aggregatibacter actinomycetemcomitans. All microbes were grown in their respective culture media: Streptococcus sobrinus and Streptococcus gordonii in BHI broth (BD, cat #237500), Aggregatibacter actinomycetemcomitans in BHI broth supplemented with 0.5% Yeast Extract (BD, cat #210941) and Actinomyces viscosus in Trypticase Soy Broth (BD, cat #211768) supplemented with 0.5% Yeast Extract (BD, cat #210941). Bacteria were cultured overnight in 37° C., 5% CO2 in approximately 20 ml of the appropriate culture broth. The following day, the OD610 was determined and solutions were diluted to 0.2 for the assay.
(§5) Triclosan (positive control) was prepared as a 10% stock in 100% EtOH and 3 fold serial dilutions were done in 100% EtOH. […] For Naringin+Zinc combination, while the highest total overall concentration was 2 mM, the exact concentration was Naringin (1.3 mM) and Zinc Acetate (0.7 mM) due to the compositions 2:1 molar ratio. For Zinc Acetate, in order to mimic the 2:1 ratio (ligand:Zinc) composition as in the complex, the final concentration ranged from 0.7 mM to 0.0027 mM in 2% DMSO.
(§6) A 100 μl aliquot of bacterial culture at OD610 0.2 were introduced to the wells with the test samples. The wells were thoroughly mixed and plates incubated overnight in a 37° C. incubator with or without 5% CO2 depending upon the bacterial species.

[2] = test system: Streptococcus gordonii; assay: Growth inhibition (OD610), single culture; assay type: cell-based; details: Streptococcus gordonii
Procedure: as §1, §2, §3, §4, §5, §6

[3] = test system: Streptococcus sobrinus; assay: Growth inhibition (OD610), single culture; assay type: cell-based; details: Streptococcus sobrinus
Procedure: as §1, §2, §3, §4, §5, §6

[4] = Growth inhibition (OD610), mixed chemostat culture; assay type: cell-based, A. viscosus, L. casei, S. oralis, F. nucleatum, V. parvula
Procedure: as §1, §2, §3
(§7) Antimicrobial characterization was also performed on mixed culture solutions having at least five microbial species present. A mixed culture containing Actinomyces viscosus (A. viscosus, A.v) (ATCC, #43146), Lactobacillus casei (L. casei, L.c) (ATCC #334), Streptococcus oralis (S. oralis, S.o) (ATCC #35037), Fusobacterium nucleatum (F. nucleatum, F.n) (ATCC #10953) and Veilonella parvula (V. parvula, V.p) (ATCC #17745) was maintained in a specialized complex medium (Modified BHI II Medium) in a continuous culture chemostat at 37° C. Approximately 10 ml of the culture was removed and the OD610 was determined. The assay was performed using cultures at two concentrations; 0.03 and 0.1 at OD610. […] Triclosan (positive control) was prepared as a 10% stock in 100% EtOH and 3 fold serial dilutions were performed in 100% EtOH. […] For Zinc Acetate, in order to mimic the 2:1 ratio (ligand:Zinc) composition as in the complex, the final concentration range from 0.7 mM to 0.0027 mM in 2% DMSO was used instead.
(§8) A 100 μl of bacterial culture at chosen OD610 (0.03 or 0.1) was introduced into the wells with the test samples. The wells were thoroughly mixed and plates incubated overnight in a 37° C. incubator with or without 5% CO2. After approximately 12-13 hours of treatment, the plate was read using Envision plate reader (Serial #1040984), absorbance at 610 nm. The % inhibition relative to control was determined as described for previously described antimicrobial protocols, supra.

[5] = test system: mixed culture containing Actinomyces viscosus, Lactobacillus casei, Streptococcus oralis, Fusobacterium nucleatum and Veilonella parvula; assay: Growth inhibition (OD610), mixed chemostat culture; assay type: cell-based, A. viscosus, L. casei, S. oralis, F. nucleatum, V. parvula; details: mixed species cultures; 1% EtOH; data not shown
Procedure: as §1, §2, §3, §7, §8

[6] = test system: planktonic oral bacterial species (S. sobrinus, S. gordonii, A. actinomycetemcomitans, A. viscosus, mixed cultures); assay: Growth inhibition, summary statements over the single, co- and mixed cultures tested; assay type: cell-based, oral bacteria
Procedure: as §1, §2, §3, §4, §5, §6

Oc1cc(Cl)ccc1Oc1ccc(Cl)cc1Cl [TCN, Triclosan]
IC50 [1]: 610 ± 460 nM | IC50 [2]: 6 ± 0.85 µM | IC50 [3]: 6 ± 1.7 µM | IC50 ([4]; Mixed Species (aerobic)): 7.6 µM | IC50 ([4]; Mixed Species (anaerobic)): 4.8 µM | IC50 of positive control, range in ppm [5]: 1.4-2.2 ppm | IC50 range over cultures tested, corresponding ppm ([6]; S. sobrinus, S. gordonii, A. actinomycetemcomitans and mixed chemostat cultures): 0.18-2.2 ppm | IC50 ([6]; read-out: concentration that inhibited 50% of the bacterial growth (IC50), range over cultures tested): 0.61 to 7.6 µM | IC50 of positive control, range in ppm ([6]; same species of bacteria cultures (single and co-cultures), 1% EtOH): 1-2.7 ppm

From US10548829B2, “Oral care compositions and methods of use” (priority 2016, dated 2020)
